The values below come from patent US9278146B2, “Peptide derivative and use of the same” (priority 2010, dated 2016).

For series [1] the following is noted: mouse, in vivo. The method, then:
(§1) After 5 minutes, 15 minutes, 30 minutes, 60 minutes, and 120 minutes from the administration, organs were dissected out of the mice (n=5).
as §1
(IB-PEG3)12-Ex4 (0.77 μCi) was administered to unanesthetized 6-week-old ddY mice (male, weight: 30 g) by intravenous injection (through the tail vein). After 5 minutes, 15 minutes, 30 minutes, 60 minutes, and 120 minutes from the administration, organs were dissected out of the mice (n=5). The weight and the radioactivity of each organ were determined, and an accumulation amount (% dose/g) of (IB-PEG3)12-Ex4 was calculated from the radioactivity per unit weight.
as §1
(FB-PEG3)12-Ex4 (5 μCi) was administered to unanesthetized 6-week-old ddY mice (male, weight: 30 g) by intravenous injection (through the tail vein). After 5 minutes, 15 minutes, 30 minutes, 60 minutes, and 120 minutes from the administration, organs were dissected out of the mice (n=5). The weight and the radioactivity of each organ were determined, and an accumulation amount (% dose/g) of (FB-PEG3)12-Ex4 was calculated from the radioactivity per unit weight.
(IB-ePEG12)12-Ex4 (0.21 μCi) was administered to unanesthetized 6-week-old ddY mice (male, weight: 30 g) by intravenous injection (through the tail vein). After 5 minutes, 15 minutes, 30 minutes, 60 minutes, and 120 minutes from the administration, organs were dissected out of the mice (n=5). The weight and the radioactivity of each organ were determined, and an accumulation amount (% dose/g) of (IB-ePEG12)12-Ex4 was calculated from the radioactivity per unit weight.

In the next series the test system is pancreatic β-cells. Kind of series: Two-dimensional imaging analysis (fluorescence and autoradiography) of pancreas sections. The series is classed as in vivo, MIP-GFP mouse. The note with it: without blocking.

Protocol for pancreatic β-cells: (IB-PEG3)12-Ex4 (5.6 μCi/100 μl) was administered to an unanesthetized MIP-GFP mouse (male, weight: 20 g) by intravenous injection, and after 30 minutes from the administration, the pancreas was dissected out of the mouse (n=1). Sections were cut out of the dissected pancreas, and each section was placed on a slide glass, covered with a cover glass. The fluorescence and the radioactivity (autoradiography) of each section were determined using an image analyzer (trade name: Typhoon 9410, manufactured by GE Health Care Inc.) (exposure time 24 hours).
Sections were cut out of the dissected pancreas, and each section was placed on a slide glass, covered with a cover glass. The fluorescence and the radioactivity (autoradiography) of each section were determined using an image analyzer (trade name: Typhoon 9410, manufactured by GE Health Care Inc.) (exposure time 48 hours).
Other than these, the fluorescence and the radioactivity were determined in the same manner as above.
(FB-PEG3)12-Ex4 (292 μCi/220 μl) was administered to an unanesthetized MIP-GFP mouse (male, weight: 20 g) by intravenous injection, and after 15 minutes from the administration, the pancreas was dissected out of the mouse (n=1). Sections were cut out of the dissected pancreas, and each section was placed on a slide glass, covered with a cover glass. […]

For (FB-PEG3)12-Ex4, in series [1], the “accumulation in the pancreas” value is on record as “exceeding 15 % dose/g”, the “radioactive accumulation in the bone” value is “small”, the ratio of pancreas/blood result was “greater than 5” and the ratio of pancreas/liver result is reported as “greater than 10”. The “localization of the radioactivity signal versus GFP signal in pancreas sections” value in the series on pancreatic β-cells is “substantially consistent with that of the GFP signal”.

For the substance (IB-PEG3)12-Ex4, in series [1], the “accumulation in the pancreas” value is given as “exceeding 25 % dose/g”, the ratio of pancreas/blood result was “greater than 5” and the ratio of pancreas/liver result is recorded as “greater than 10”. Further, in the series on pancreatic β-cells, the “localization of the radioactivity signal versus GFP signal in pancreas sections” value is “substantially consistent with that of the GFP signal”.

With (IB-ePEG12)12-Ex4, in series [1], the “accumulation in the pancreas” value was “exceeding 25 % dose/g”, the ratio of pancreas/blood result was “greater than 5” and the ratio of pancreas/liver result is reported as “greater than 10”.
